Where two headings read alike, the source gives them in different places.

Experimental findings from article PMC9880438, “Pharmacokinetics of active compounds of a Terminalia chebula Retz. Ethanolic extract after oral administration rats using UPLC-MS/MS” (Frontiers in Pharmacology, 2023) are described below.

The nature of data set [1]: Stability of QC samples of the analytes in rat plasma under storage conditions. The format is physicochemical. The following applies: n = 6. As for the experimental part: Preparation of quality control (QC) samples with three concentrations (low, medium, and high) of 16, 160, and 3,200 ng/ml for ellagic acid; 1.6, 16, 320 ng/ml for protocatechuic acid, ethyl gallate and 1,2,3,4,6-O-pentagalloylglucose; 40, 400 and 8,000 ng/ml for chebulic acid, gallic acid, corilagin and chebulinic acid and 160, 1,600, 32000 ng/ml for chebulagic acid. Both QC samples and stock solutions were stored in a refrigerator at 4°C.
Under variable treatment conditions: stored for 12 h at auto-sampler, for 4 hours at room temperature, under three freeze-thaw cycles, and kept at −80°C for 7 days, quality control samples were analyzed to assess the stability of the nine analytes in plasma.

The conditions of data set [2]: rat, in vivo, po.
Method: (§1) UPLC-MS/MS system was used for analysis and monitoring, which consisted primarily of an Agilent 1290 UPLC system (Agilent Technologies, Germany) and an Agilent 6,470 series triple quad (TQ) mass spectrometer (MS) (Agilent Technologies, Singapore) equipped with an electrospray ionization source.
(§2) Separation was carried out on an ACQUITY UPLC® HSS T3 column (2.1 × 100 mm, 1.8 μm), and temperature in the column was kept at 20°C. In the mobile phase, 0.1% formic acid in water and acetonitrile were used as solvents A and B, respectively. Gradient elution was performed as follows: 1%–5% B at 0–3 min; 5%–30% B at 3–4 min; 30%–40% B at 4–8 min; 40%–100% B at 8–9 min; 100%–100% B at 9–12 min. The flow rate was set at 0.3 ml/min and the injection volume was 10 μL.
(§3) Multiple reaction monitoring (MRM) was used for quantitative analysis in negative (−) ionization mode. The mass spectrometric parameters were set as follows: drying gas (N2) temperature was 300°C; gas (N2) flow rate was 7 L/min; atomizer pressure was 35 psi; sheath gas flow was 11 L/min and capillary voltage was 3800 V. The specific mass spectrometric parameters of the precursor ion, product ion, fragmentor, collision energy, and ion modes of the nine compounds and IS are shown in Table 1.
(§4) The plasma sample (100 μl) was sequentially spiked with 20 μl IS solutions (caffeic acid, 1,000 ng/ml); 20 μL methanol, and 10 μl formic acid, then vortex-mixed for 1 min. The mixture was precipitated protein with 1,000 μl methanol by vortex mixing for 3 min. The supernatant was collected into a 1.5 ml clean centrifuge tube after centrifugation at for 10 min 14,000 rpm, and evaporated under a nitrogen stream until dry. After that, the residue was redissolved in 100 μl methanol, vortex-mixed for 3 min, then centrifuged for 10 min at 14,000 rpm. 10 μl analyte was injected into the UPLC-MS/MS system.
(§5) In this study, six of male rats were used, given free access to water, and fasted for 12 h before the experimental period. The TC extracts were dissolved in 0.5% CMC-Na aqueous solution as a suspension at a concentration of 1 g/ml. A dose of 10 g/kg of the suspension was administered to the rats orally, the blood samples of approximately 300 μL were drawn from the fundus venous plexus of rats pre- and post-oral administration at 0.00, 0.08, 0.17, 0.25, 0.50, 0.75, 1, 2, 4, 6, 8, 10, 12, 24, 36, 48, 60, 72, 84, 96, 120, 144 and 168 h, respectively. For analysis, the plasma supernatants collected from the centrifuged plasma were frozen at −80°C after centrifugation for 10 min at 6,000 rpm.
(§6) Data were expressed as mean ± standard deviation (mean ± SD). MassHunter Workstation software (version B.09.00) was quantitatively used to calculate the plasma concentrations of nine analytes. To evaluate the specific pharmacokinetic parameters, DAS Software (DAS 3.0, Medical College of Wannan, China) was used to process the pharmacokinetic results.
A short description of data set [3]: Pharmacokinetic study in rats after oral administration of TC extracts (UPLC-MS/MS of plasma). To be noted: for AUC / AUC(0-inf) / Cmax / MRT / MRT inf / Tmax / half-life: male, Sprague-Dawley, rat, plasma, po, 10 g/kg.
Method: as §1, §2, §3, §4, §5, §6
Data set [4] in a line: in vivo. The following applies: male, Sprague-Dawley, rat, po, 10 g/kg.
Method: as §1, §2, §3, §4, §5, §6
Setting [5] is: spiked 40 ng/mL, autosampler for 12 h.
[6] abbreviates: spiked 40 ng/mL, room temperature for 4 h.
The mark [7] stands for this setting: spiked 40 ng/mL, three freeze-thaw cycles.
Where [8] appears, read: spiked 40 ng/mL, −80°C for 7 days.
Setting [9] is: spiked 400 ng/mL, autosampler for 12 h.
Where [10] appears, read: spiked 400 ng/mL, room temperature for 4 h.
[11] abbreviates: spiked 400 ng/mL, three freeze-thaw cycles.
Setting [12] is: spiked 400 ng/mL, −80°C for 7 days.
Where [13] appears, read: spiked 8,000 ng/mL, autosampler for 12 h.
Where [14] appears, read: spiked 8,000 ng/mL, room temperature for 4 h.
The mark [15] stands for this setting: spiked 8,000 ng/mL, three freeze-thaw cycles.
Setting [16] is: spiked 8,000 ng/mL, −80°C for 7 days.
[17] abbreviates: spiked 16 ng/mL, autosampler for 12 h.
Setting [18] is: spiked 16 ng/mL, room temperature for 4 h.
The mark [19] stands for this setting: spiked 16 ng/mL, three freeze-thaw cycles.
The mark [20] stands for this setting: spiked 16 ng/mL, −80°C for 7 days.
Where [21] appears, read: spiked 1.6 ng/mL, autosampler for 12 h.
Setting [22] is: spiked 1.6 ng/mL, room temperature for 4 h.
Setting [23] is: spiked 1.6 ng/mL, three freeze-thaw cycles.
Where [24] appears, read: spiked 1.6 ng/mL, −80°C for 7 days.
[25] abbreviates: spiked 320 ng/mL, autosampler for 12 h.
The mark [26] stands for this setting: spiked 320 ng/mL, room temperature for 4 h.
Where [27] appears, read: spiked 320 ng/mL, three freeze-thaw cycles.
Setting [28] is: spiked 320 ng/mL, −80°C for 7 days.

On to `O=C(O)C[C@H](C(=O)O)[C@H]1c2c(cc(O)c(O)c2O)C(=O)O[C@@H]1C(=O)O` [Chebulic acid, chebulic acid], for which the “Measured concentration after storage” value in data set [1] (setting [5]) stood at 35.6 ± 3.9 ng/mL; in data set [1] (setting [6]), 39.9 ± 1.9 ng/mL; in data set [1] (setting [7]) it was 40.1 ± 3.3 ng/mL; in data set [1] (setting [8]) it was 37.5 ± 2.1 ng/mL; in data set [1] (setting [9]), 393.3 ± 52.6 ng/mL; in data set [1] (setting [10]), 395.7 ± 29.7 ng/mL. Further, the “Measured concentration after storage” value was 398.4 ± 12.2 ng/mL in data set [1] (setting [11]); 364.4 ± 17.5 ng/mL in data set [1] (setting [12]); 8,230.9 ± 726.4 ng/mL in data set [1] (setting [13]); 7,996.4 ± 517.7 ng/mL in data set [1] (setting [14]); 7,691 ± 316.7 ng/mL in data set [1] (setting [15]); 6,878.6 ± 535.3 ng/mL in data set [1] (setting [16]). Besides, the T1/2 is 1.51 h in data set [2] and 6.60 ± 4.36 h in data set [2] (10 g/kg). In data set [2] (10 g/kg), the “AUC (0-tn)” value is given as 29045.30 ± 4,395.44 h·ng/mL. The “AUC (0-∞)” value in data set [2] (10 g/kg) is given as 34069.03 ± 6,641.84 h·ng/mL. In addition, the highest concentration (Cmax) in data set [2] (10 g/kg) is given as 1927.06 ± 572.23 ng/mL. The “MRT (0-tn)” value in data set [2] (10 g/kg) was 33.56 ± 3.77 h. Moreover, the “MRT (0-∞)” value in data set [2] (10 g/kg) was found to be 77.92 ± 22.14 h. Besides, the Tmax in data set [2] (10 g/kg) stood at 1.67 ± 0.52 h.

`O=C(O[C@@H]1O[C@@H]2COC(=O)c3cc(O)c(O)c(O)c3-c3c(cc(O)c(O)c3O)C(=O)O[C@H]([C@H]1O)[C@@H]2O)c1cc(O)c(O)c(O)c1` [Corilagin, corilagin]: the “Measured concentration after storage” value turned out to be 38.8 ± 1.2 ng/mL in data set [1] (setting [5]); 39.6 ± 3.0 ng/mL in data set [1] (setting [6]); 42.8 ± 2.4 ng/mL in data set [1] (setting [7]); 39.7 ± 2.1 ng/mL in data set [1] (setting [8]); 435.7 ± 34.5 ng/mL in data set [1] (setting [9]); 398.2 ± 34.3 ng/mL in data set [1] (setting [10]). Further, the “Measured concentration after storage” value is listed as 405.3 ± 6.0 ng/mL in data set [1] (setting [11]); 395.6 ± 7.2 ng/mL in data set [1] (setting [12]); 7,335.4 ± 704.5 ng/mL in data set [1] (setting [13]); 8,930.5 ± 535.3 ng/mL in data set [1] (setting [14]); 8,802.7 ± 713.0 ng/mL in data set [1] (setting [15]); 8,304.6 ± 362.4 ng/mL in data set [1] (setting [16]). In addition, the AUC in data set [3] was determined as 16700 ± 12400 ng·h/mL. The AUC(0-inf) in data set [3] was 17400 ± 12500 ng·h/mL. Also, the Cmax in data set [3] came out at 591 ± 203 ng/mL. This molecule also had a mean residence time MRT in data set [3] of 53.5 ± 4.12 h. This molecule also had a mean residence time MRT inf in data set [3] of 99.4 ± 46.2 h. The Tmax in data set [3] was determined as 1.67 ± 0.52 h. This molecule also gave a half-life in data set [3] of 26.4 ± 22.2 h.

Turning to `O=c1oc2c(O)c(O)cc3c(=O)oc4c(O)c(O)cc1c4c23` [Ellagic acid, ellagic acid], the “Measured concentration after storage” value in data set [1] (setting [17]) was 17.6 ± 1.6 ng/mL; in data set [1] (setting [18]) it was 17.5 ± 1.7 ng/mL; in data set [1] (setting [19]), 16.9 ± 1.4 ng/mL; in data set [1] (setting [20]) it was 16.8 ± 1.0 ng/mL; in data set [1] (spiked 160 ng/mL, autosampler for 12 h), 154.8 ± 13.9 ng/mL; in data set [1] (spiked 160 ng/mL, room temperature for 4 h), 156.3 ± 17.8 ng/mL. The “Measured concentration after storage” value was 171.8 ± 10.5 ng/mL in data set [1] (spiked 160 ng/mL, three freeze-thaw cycles); 163.8 ± 4.3 ng/mL in data set [1] (spiked 160 ng/mL, −80°C for 7 days); 3,450.0 ± 313.1 ng/mL in data set [1] (spiked 3,200 ng/mL, autosampler for 12 h); 3,437.2 ± 188 ng/mL in data set [1] (spiked 3,200 ng/mL, room temperature for 4 h); 3,438.7 ± 285.7 ng/mL in data set [1] (spiked 3,200 ng/mL, three freeze-thaw cycles); 3,594.0 ± 81.5 ng/mL in data set [1] (spiked 3,200 ng/mL, −80°C for 7 days). In data set [3], this molecule registered an AUC of 6810 ng·h/mL. The molecule further showed an AUC(0-inf) in data set [3] of 7340 ng·h/mL. The same molecule showed a peak concentration (Cmax) in data set [3] of 390 ± 80.5 ng/mL. In data set [3], this molecule yielded a mean residence time MRT of 45.9 ± 8.13 h. This molecule also returned a mean residence time (MRT inf) in data set [3] of 56.5 ± 13 h. Besides, the Tmax in data set [3] worked out at 0.97 ± 0.84 h. Also, the half-life in data set [3] is 8.23 ± 8.95 h. Moreover, the “Shape of plasma concentration-time curve” value in data set [3] (rat plasma, oral TC extracts, Figure 2) is reported as “double peaks phenomenon”.

For the molecule `CCOC(=O)c1cc(O)c(O)c(O)c1` [Ethyl gallate, ethyl gallate], the “Measured concentration after storage” value is 1.7 ± 0.2 ng/mL in data set [1] (setting [21]); 1.4 ± 0.1 ng/mL in data set [1] (setting [22]); 1.6 ± 0.1 ng/mL in data set [1] (setting [23]); 1.6 ± 0.1 ng/mL in data set [1] (setting [24]); 16.3 ± 2.6 ng/mL in data set [1] (setting [17]); 14.6 ± 1.9 ng/mL in data set [1] (setting [18]). Moreover, the “Measured concentration after storage” value in data set [1] (setting [19]) was 13.6 ± 1.2 ng/mL; in data set [1] (setting [20]) it was 14.2 ± 0.4 ng/mL; in data set [1] (setting [25]) it was 323.3 ± 13.8 ng/mL; in data set [1] (setting [26]), 345.6 ± 14.7 ng/mL; in data set [1] (setting [27]), 328.6 ± 17.1 ng/mL; in data set [1] (setting [28]) it was 307.4 ± 29.5 ng/mL. For the same molecule, the area under the curve (AUC) in data set [3] is 16.9 ± 8.28 ng·h/mL. The molecule also gave an AUC(0-inf) in data set [3] of 16.9 ± 8.2 ng·h/mL. For the same molecule, the peak level in data set [3] (Cmax) was 12.5 ± 4.38 ng/mL. The mean residence time MRT in data set [3] stood at 1.55 ± 0.42 h. In addition, the MRT inf in data set [3] came to 1.6 ± 0.4 h. The Tmax in data set [3] was found to be 0.63 ± 0.26 h. The same molecule showed a half-life in data set [3] of 2.08 ± 2.16 h.

Take `O=C(O)c1cc(O)c(O)c(O)c1` [Gallic acid, gallic acid]: the “Measured concentration after storage” value is 34.9 ± 5.1 ng/mL in data set [1] (setting [5]); 35.5 ± 1.0 ng/mL in data set [1] (setting [6]); 41.0 ± 2.8 ng/mL in data set [1] (setting [7]); 41.2 ± 0.8 ng/mL in data set [1] (setting [8]); 431.7 ± 27.3 ng/mL in data set [1] (setting [9]); 385 ± 36.1 ng/mL in data set [1] (setting [10]). In addition, the “Measured concentration after storage” value in data set [1] (setting [11]) is listed as 393.9 ± 35.3 ng/mL; in data set [1] (setting [12]) it was 358.6 ± 21.8 ng/mL; in data set [1] (setting [13]) it was 8,051.6 ± 602.3 ng/mL; in data set [1] (setting [14]), 8,051.2 ± 472.7 ng/mL; in data set [1] (setting [15]), 8,222.3 ± 456.3 ng/mL; in data set [1] (setting [16]) it was 8,304.7 ± 418.5 ng/mL. Besides, the T1/2 in data set [2] (male, Sprague-Dawley) was 2.06 h. In data set [4], this molecule yielded an AUC of 16000 ng·h/mL. The molecule also gave an AUC(0-inf) in data set [4] of 16000 ng·h/mL. Besides, in data set [4], the Cmax was 2230 ng/mL. In addition, the MRT in data set [4] was determined as 6.58 ± 1.07 h. Further, the mean residence time (MRT inf) in data set [4] was determined as 6.58 ± 1.07 h. Also, the Tmax in data set [4] was 1.17 ± 0.41 h. The half-life in data set [4] was 1.51 ± 0.43 h.

For `O=C(O)c1ccc(O)c(O)c1` [Protocatechuic acid, protocatechuic acid], the “Measured concentration after storage” value came to 1.7 ± 0.2 ng/mL in data set [1] (setting [21]); 1.6 ± 0.1 ng/mL in data set [1] (setting [22]); 1.8 ± 0.1 ng/mL in data set [1] (setting [23]); 1.5 ± 0.2 ng/mL in data set [1] (setting [24]); 14.5 ± 2.0 ng/mL in data set [1] (setting [17]); 16.4 ± 0.6 ng/mL in data set [1] (setting [18]). Moreover, the “Measured concentration after storage” value is on record as 13.9 ± 0.7 ng/mL in data set [1] (setting [19]); 13.1 ± 1.2 ng/mL in data set [1] (setting [20]); 305.9 ± 15.9 ng/mL in data set [1] (setting [25]); 297.9 ± 8.4 ng/mL in data set [1] (setting [26]); 330.3 ± 18.5 ng/mL in data set [1] (setting [27]); 334.2 ± 8.0 ng/mL in data set [1] (setting [28]). This molecule also yielded an AUC in data set [3] of 70.8 ± 16.6 ng·h/mL. The same molecule yielded an AUC(0-inf) in data set [3] of 70.8 ± 16.6 ng·h/mL. The highest level in data set [3] (Cmax) was 24.7 ± 3.27 ng/mL. Also, in data set [3], the mean residence time MRT worked out at 3.39 ± 0.83 h. This molecule also registered a mean residence time MRT inf in data set [3] of 3.39 ± 0.83 h. The Tmax in data set [3] was 0.54 ± 0.1 h. In data set [3], the half-life was 2.06 ± 0.76 h.
